This is an account of results in US20250296938A1, “Compounds that Interact with the Ras Superfamily for the Treatment of Cancers, Inflammatory Diseases, Rasopathies, and Fibrotic Disease” (SHY Therapeutics, LLC, priority 2018, published 2025).

In assay [1] the test system is GTP-bound RAS. Briefly: Cell-based Ras-GTP pulldown assay, NCI H1975. The conditions noted are these: Homo sapiens. On the procedure: (§1) Cell lines: Human NSCLC cells NCI-H1975, and tumor-derived pancreatic cancer cell lines Panc-1, and MIA-PaCa-2, were all purchased from American Type Culture Collection and grown in complete RPMI medium (NCI-H1975) or DMEM-High Glucose (Panc1 and MIA-PaCa-2), supplemented with penicillin (100 U/mL), streptomycin (100 μg/mL), and 10% heat-inactivated FBS at 37° C. in a humidified incubator with 5% CO2.
(§2) Method: Cells were plated at 2·10^6 cells/well density in a 6-well plate, allowed 3 hours to adhere to the plate, then starved in the appropriate medium in the presence of 0.5% FBS overnight. The small molecules to be tested were added to the cells in the final concentration of 10 μM in the presence of 0.3% DMSO for 6 hours incubation at 37° C. For IC50 value determination, serial dilutions of compounds were added to cells under the same conditions. Next, cells were stimulated with 5 ng/mL EGF for 5 minutes, rinsed with ice-cold PBS and then lysed with 500 μL of lysis/binding/wash buffer (25 mM Tris-HCl, pH 7.2, 150 mM NaCl, 5 mM MgCl2, 5% glycerol, 1% NP40) from Active Ras Detection kit (Cell signaling Technology, #8821) supplemented with Halt™ Protease & Phosphatase Inhibitor Cocktail (Thermo Scientific). To account for significant differences in cell number due to the treatment, a small sample of lysate was saved for protein quantification and the rest of the lysate was snap frozen. Protein concentration was assessed by BCA protein assay (Thermo Scientific). To ensure that equal amount of protein undergoes RBD pulldown, lysates were subsequently thawed (at RT) and adjusted to 1 mg/mL with lysis/binding/wash buffer (0.5 mL volume). Equal amounts of lysate were then added to 0.5 mL lysis buffer containing RAF-RBD (1 mL total volume). Lysates were vortexed, incubated for 10 min on ice and subsequently pre-cleared at 14,000 rpm for 5 min at 4° C. 90% of the pre-cleared lysates were subsequently added to pre-washed glutathione agarose beads from Active Ras Detection kit (Cell signaling Technology, #8821) for 1 hour at 4 °C under constant rocking. The beads were subsequently pelleted, washed 3 times with lysis/binding/wash buffer, and eluted for western blotting with 50 μL of 1×SDS-PAGE sample buffer. Level of GTP-bound RAS was determined by western blot.
(§3) Western blot protocol: Equal volumes of eluate (25 μL) were separated by 16% SDS-PAGE and transferred to nitrocellulose membranes (Invitrogen by Thermo Fisher Scientific). The membrane was stained with Ponceau S Stain (Boston BioProducts) to verify uniform protein loading. […]

Assay [2] relates to GTP-bound RAS. Description: Cell-based Ras-GTP pulldown assay, MIA PaCa-2. The conditions noted are these: Homo sapiens; for inhibition at 10 µM: 6 hours, EGF stimulation. On the procedure: as §1, §2
Western blot protocol: Equal volumes of eluate (25 μL) were separated by 16% SDS-PAGE and transferred to nitrocellulose membranes (Invitrogen by Thermo Fisher Scientific). The membrane was stained with Ponceau S Stain (Boston BioProducts) to verify uniform protein loading. Membranes were blocked with 5% BSA in TBST and then incubated overnight at 4° C. with anti-RAS mouse monoclonal antibody from the Active Ras Detection kit (Cell signaling Technology, #8821), followed by HRP-conjugated secondary antibody (Jackson Immunoresearch, West Grove, PA). Membranes were incubated in Amersham ECL Prime Western Blotting Detection Reagent (GE Healthcare) and bands were visualized using the ChemiDoc MP imaging system (Bio-Rad).

Assay [3] deals with GTP-bound RAS. Description: Cell-based Ras-GTP pulldown assay, PANC-1. Conditions: Homo sapiens. On the procedure: as §1, §2, §3
The next assay relates to MEK phosphorylation. Briefly: Western MEK cell-based phosphorylation assay, PANC-1. The conditions noted are these: Homo sapiens. On the procedure:
Cell lines: Human NSCLC cells NCI-H1975 and tumor-derived pancreatic cancer cell lines Panc-1 and MIA-PaCa-2 were all purchased from American Type Culture Collection and grown in complete RPMI medium (NCI-H1975) or DMEM-High Glucose (Panc1 and MIA-PaCa-2), supplemented with penicillin (100 U/mL), streptomycin (100 μg/mL), and 10% heat-inactivated FBS at 37° C. in a humidified incubator with 5% CO2.
Method: Cells were plated at 350000 cells/well density in a 12-well plate, allowed 3 hours to adhere to the plate, then starved in the appropriate medium in the presence of 0.5% FBS overnight. The small molecules to be tested were added to the cells in the final concentration of 10 μM in the presence of 0.3% DMSO for 6 hours incubation at 37° C. For IC50 value determination, serial dilutions of compounds were added to cells under the same conditions. Next, cells were stimulated with 1.5 ng/ml EGF for 15 minutes then cells were lysed with lysis buffer containing 1% Triton X-100, EDTA, and Halt™ Protease & Phosphatase Inhibitor Cocktail (Thermo Scientific). Protein concentration was assessed by BCA protein assay (Thermo Scientific). Phosphorylation level of MEK was determined by western blot.
Western blot protocol: Equal amounts of protein (15-50 μg) were separated by SDS-PAGE and transferred to nitrocellulose membranes (Invitrogen by Thermo Fisher Scientific). The membrane was stained with Ponceau S Stain (Boston BioProducts) to verify uniform protein loading. Membranes were blocked with 10% milk and phosphorylation levels of MEK were assessed by incubating overnight at 4° C. with anti-phospho-MEK 1/2 (Ser217/Ser221) antibody (Cell Signaling) followed by HRP-conjugated secondary antibody (Jackson Immunoresearch, West Grove, PA). Bands were incubated in Amersham ECL Prime Western Blotting Detection Reagent (GE Healthcare) and visualized using the ChemiDoc MP imaging system (Bio-Rad).

In assay [4] the target is GTP binding domain of Ras. The conditions noted are these: literature (Feuerstein 1987; John 1990); cited from earlier work.
Setting [5] is: 10 μM, 6 hours, EGF stimulation.

For the compound `CO[C@H]1CCC(Nc2nc(-c3nccn3C)nc3sc(-c4ccn(C)n4)c(-c4ccccc4)c23)C1` (stereo partly drawn) [drawing 1080], the figures for the IC50 in the assay on GTP-bound RAS [1], in the assay on GTP-bound RAS [2] and in the assay with GTP-bound RAS [3] were over 1000 nM, over 1000 nM and 750 to 1000 nM, respectively.
Take `CO[C@H]1CCC(Nc2nc(-c3nccn3C)nc3sc(-c4ccn(C)n4)c(-c4ccccc4)c23)C1` (stereo partly drawn) [drawing 1077]: the inhibition at 10 µM with GTP-bound RAS [1] (setting [5]), with GTP-bound RAS [2] and in the assay with GTP-bound RAS [3] (setting [5]) was 76 to 100% throughout.
`CO[C@H]1CC[C@@H](Nc2nc(-c3nccn3C)nc3sc(-c4ccn(C(C)C)n4)c(C4=CC=CCC=C4)c23)C1` [drawing 1078] gave an inhibition at 10 µM in the assay on GTP-bound RAS [2] of 76 to 100%.
In the assay with MEK phosphorylation, `COc1cccc(-c2sc3nc(-c4nccn4C)nc(N4CCC(OC)C4)c3c2-c2ccccc2)c1F` (stereo not drawn) [drawing 477] had an IC50 of over 1000 nM.
In the case of `Nc1nc2c(ncn2[C@@H]2O[C@H](COP(=O)(O)OP(=O)(O)O)[C@@H](O)[C@H]2O)c(=O)[nH]1` [GDP], the “affinity for the GTP binding domain of Ras” value in assay [4] was “single to double digit picomolar”.
